This assay concerns the target T1, Fatty-acid amide hydrolase 1 [30-579] (Rattus norvegicus, UniProt P97612).
T1 construct: 30-579
T1 sequence (P97612 whole entry): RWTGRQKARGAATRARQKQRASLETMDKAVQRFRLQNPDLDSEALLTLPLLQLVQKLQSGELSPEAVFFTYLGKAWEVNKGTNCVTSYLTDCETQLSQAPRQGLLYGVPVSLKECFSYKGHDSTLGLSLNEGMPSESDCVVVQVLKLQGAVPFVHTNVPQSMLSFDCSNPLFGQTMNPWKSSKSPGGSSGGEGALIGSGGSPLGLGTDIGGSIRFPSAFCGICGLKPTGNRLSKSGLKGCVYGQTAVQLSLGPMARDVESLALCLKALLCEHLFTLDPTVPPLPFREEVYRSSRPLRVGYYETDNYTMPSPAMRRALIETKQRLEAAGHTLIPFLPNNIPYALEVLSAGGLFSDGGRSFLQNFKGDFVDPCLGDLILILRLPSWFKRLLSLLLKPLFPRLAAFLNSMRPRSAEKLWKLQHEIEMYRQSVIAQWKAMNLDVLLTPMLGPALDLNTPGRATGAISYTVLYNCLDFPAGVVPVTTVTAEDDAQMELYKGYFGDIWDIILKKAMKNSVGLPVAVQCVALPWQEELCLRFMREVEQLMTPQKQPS
Briefly: FAAH Assay. The following applies: pH 7; 4 °C.
Protocol: Frozen (−80 °C) brains (minus cerebella) from adult Wistar or Sprague-Dawley rats were thawed and homogenized in 20 mM HEPES, 1 mM MgCl2, pH 7.0. and thereafter centrifuged at ~35000 × g for 20 min at 4°C. […] After a further centrifugation, the pellets were resuspended in 50 mMTris-HCl buffer, pH 7.4, containing 1 mM EDTA and 3 mM MgCl2 and frozen at −80°C in aliquots until used for assay. […] Reactions were stopped by placing the tubes on ice. Final assay concentrations of the solvents used for the compounds (ethanol or DMSO) were in the range 1-5%. Activated charcoal (80 μL + 320 μL 0.5 M HCl) was added and the samples were mixed and left at room temperature for about 30 min. Following centrifugation at 2500 rpm for 10 min, aliquots (200 μL) of the supernatants were analyzed for tritium content by liquid scintillation spectroscopy with quench correction. Blank values were obtained by the use of buffer rather than homogenate.
Broadly, the IC50 is the concentration at which inhibition is half-maximal. A low value points to inhibition by little substance. `Cc1cccc(NC(=O)CNC(=O)C(C)c2ccc(CC(C)C)cc2)n1` (configuration not stated) [2-(4-Isobutylphenyl)-N-(2-(6-methylpyridin-2-ylamino)-2-oxoethyl)propanamide (10)]: the IC50 was found to be 150 µM.
Turning to `CC(C)Cc1ccc(C(C)C(=O)NCC(=O)NCc2ccccn2)cc1` (configuration not stated) [2-(4-Isobutylphenyl)-N-(2-oxo-2-(pyridin-2-ylmethylamino)ethyl)propanamide (12)], the IC50 came to 90 µM.
The figure for `CC(C)Cc1ccc(C(C)C(=O)NCC(=O)NCc2cccnc2)cc1` (configuration not stated) [2-(4-Isobutylphenyl)-N-(2-oxo-2-(pyridin-3-ylmethylamino)ethyl)propanamide (13)] is 37 µM; for `Cc1cccnc1NC(=O)CCNC(=O)C(C)c1ccc(CC(C)C)cc1` (configuration not stated) [2-(4-Isobutylphenyl)-N-(3-(3-methylpyridin-2-ylamino)-3-oxopropyl)propanamide (11)] it is 9.3 µM; for `Cc1cccnc1NC(=O)C(C)c1ccc(CC(C)C)cc1` (configuration not stated) [2-(4-isobutylphenyl)-N-(3-methylpyridin-2-yl)propanamide] it is 0.65 µM.
The compound `Cc1cccnc1OC(=O)C(C)c1ccc(CC(C)C)cc1` (configuration not stated) [3-Methylpyridin-2-yl 2-(4-isobutylphenyl)propanoate (3)] showed an IC50 of 115 µM.
With `CC(=O)Nc1ccc(OC(=O)CNC(=O)C(C)c2ccc(CC(C)C)cc2)cc1` (configuration not stated) [4-Acetamidophenyl 2-(2-(4-isobutylphenyl)propanamido)acetate (8)] the figure was 1.5 µM.

These data come from BindingDB's records for doi:10.3109/14756366.2011.643304 (Umeå University, 2013).
